According to US8093253B2, “Leukotriene B4 inhibitors” (Hoffmann-La Roche Inc., priority 2008, dated 2012):

Test system: BLT1 and BLT2 receptors (HL-60 cells)
Test: Ca2+ flux assay for LTB4 antagonist assay (HL-60 FLIPR)
Type: cell-based, Human
Details: Retinoic acid induced HL-60 cells, inhibition of LTB4-induced Ca2+ flux, 30 min preincubation; read-out: LTB4 antagonism (HL-60 FLIPR) IC50
Procedure: Ca^2+ Flux Assay for LTB4 Antagonist Assay
Human leukemia HL-60 cells endogenously expressing BLT1 and BLT2 receptors were cultured in RPMI-1640 medium supplemented with 20% fetal bovine serum, 2 mM glutamine, 100 U/mL penicillin and 100 ug/mL streptomycin.
Seventy two hours prior to experiment cells are counted using ViaCount reagent, centrifuged and resuspended at 2.0×10^5 cells/mL density with the complete growth media containing 1 μM Retinoic Acid (Sigma).
On a day of the experiment loading buffer (Calcium-3 Assay Kit, Molecular Devices) was prepared by dissolving the contents of one vial (Express Kit) into 500 mL Hank's Balanced Salt Solution containing 20 mM HEPES and 5 mM probenecid. Equal volume of the loading buffer was mixed with the replacement buffer (Hank's Balanced Salt Solution containing 20 mM HEPES, 0.05% BSA and 5 mM probenecid). Retinoic Acid induced HL-60 cells were counted using ViaCount reagent, centrifuged and resuspended at 2.0×10^6 cells/mL density with the loading buffer/replacement buffer, dispensed into 384 well black/clear microplates (Falcon)(25 μL/well) and placed in a 37° C./5% CO2 incubator for 1 hour.
During the incubation, test compounds were prepared at 6× the desired concentration in HBSS/20 mM HEPES/0.05% BSA as well as LTB4 (Biomol) was prepared at 2.2× concentration in HBSS/20 mM HEPES/0.5% BSA buffer.
After the incubation, both the cell and compound plates were brought to the FLIPR and 5 μL of the diluted compounds were transferred to the cell plates by the FLIPR. Plates were then incubated for 30 min at room temperature. After the ½ hour incubation, plates were returned to the FLIPR and 25 μL of 2.2×LTB4 was added to the cell plates. During the assay, fluorescence readings were taken simultaneously from all 384 wells of the cell plate every 1.5 seconds. Five readings were taken to establish a stable baseline, then 25 μL (LTB4) of sample was rapidly and simultaneously added to each well of the cell plate. The fluorescence was continuously monitored before, during and after sample addition for a total elapsed time of 100 seconds. Responses (increase in peak fluorescence) in each well following agonist addition was determined. The initial fluorescence reading from each well, prior to ligand stimulation, was used a zero baseline value for the data from that well. The responses are expressed as % inhibition of the neutral control (neural control: wells that received buffer plus DMSO but no test compound).
Work on `Cc1ccc(-c2cc(OCCCCCCc3cccc(OCCCC(=O)O)c3CCC(=O)O)cc(S(C)(=O)=O)c2)cc1F` [Example 11, 4-{2-(2-Carboxy-ethyl)-3-[6-(3′-fluoro-5-methanesulfonyl-4′-methyl-biphenyl-3-yloxy)-hexyl]-phenoxy}-butyric Acid] yielded an IC50 of 320 pM.
Work on `CS(=O)(=O)c1cc(OCCCCCCc2cccc(OCCCC(=O)O)c2CCC(=O)O)cc(-c2ccsc2)c1` [Example 12, 4-{2-(2-Carboxy-ethyl)-3-[6-(3-methanesulfonyl-5-thiophen-3-yl-phenoxy)-hexyl]-phenoxy}-butyric Acid] yielded an IC50 of 440 pM.
Molecule `CS(=O)(=O)c1cc(OCCCCCCc2cccc(OCCCC(=O)O)c2CCC(=O)O)cc(-c2ccccc2)c1` [Example 28, 4-{2-(2-Carboxy-ethyl)-3-[6-(5-methanesulfonyl-biphenyl-3-yloxy)-hexyl]-phenoxy}-butyric Acid] has an IC50 of 380 pM.
Work on `CS(=O)(=O)c1cc(OCCCCCCc2cccc(OCCCC(=O)O)c2CCC(=O)O)cc(-c2ccc3c(c2)OCO3)c1` [Example 40, 4-[3-[6-(3-Benzo[1,3]dioxol-5-yl-5-methanesulfonyl-phenoxy)-hexyl]-2-(2-carboxy-ethyl)-phenoxy]-butyric Acid] yielded an IC50 of 90 pM.
Molecule `CS(=O)(=O)c1cc(OCCCCCCc2cccc(OCCCC(=O)O)c2CCC(=O)O)cc(-c2ccc3c(c2)OC(F)(F)O3)c1` [Example 46, 4-(2-(2-Carboxy-ethyl)-3-{6-[3-(2,2-difluoro-benzo[1,3]dioxol-5-yl)-5-methanesulfonyl-phenoxy]-hexyl}-phenoxy)-butyric Acid] has an IC50 of 240 pM.
`CS(=O)(=O)c1cc(OCCCCCCc2cccc(OCCCC(=O)O)c2CCC(=O)O)cc(-c2ccc3scnc3c2)c1` [Example 45, 4-[3-[6-(3-Benzothiazol-5-yl-5-methanesulfonyl-phenoxy)-hexyl]-2-(2-carboxy-ethyl)-phenoxy]-butyric Acid] showed an IC50 of 200 pM.
`CS(=O)(=O)c1cc(OCCCCCCc2cccc(OCCCC(=O)O)c2CCC(=O)O)cc(-c2cccc(F)c2)c1` [Example 27, 4-{2-(2-Carboxy-ethyl)-3-[6-(3′-fluoro-5-methanesulfonyl-biphenyl-3-yloxy)-hexyl]-phenoxy}-butyric Acid] gave an IC50 of 900 pM.
`COc1ccc(-c2cc(OCCCCCCc3cccc(OCCCC(=O)O)c3CCC(=O)O)cc(S(C)(=O)=O)c2)cc1` [Example 29, 4-{2-(2-Carboxy-ethyl)-3-[6-(5-methanesulfonyl-4′-methoxy-biphenyl-3-yloxy)-hexyl]-phenoxy}-butyric Acid] gave an IC50 of 120 pM.
`CC(C)S(=O)(=O)c1cc(OCCCCCCc2cccc(OCCCC(=O)O)c2CCC(=O)O)cc(-c2ccc(F)cc2)c1` [Example 60, 4-[2-(2-Carboxy-ethyl)-3-[6-(5-(propane-2-sulfonyl)-4′-fluoro-biphenyl-3-yloxy)-hexyl]-phenoxy]-butyric Acid] showed an IC50 of 15300 pM.
`CS(=O)(=O)c1cc(OCCCCCCc2cccc(OCCCC(=O)O)c2CCC(=O)O)cc(Oc2ccc(Cl)cc2)c1` [Example 23, 4-(2-(2-Carboxy-ethyl)-3-{6-[3-(4-chloro-phenoxy)-5-methanesulfonyl-phenoxy]-hexyl}-phenoxy)-butyric Acid] showed an IC50 of 361000 pM.
For `CS(=O)(=O)c1cc(OCCCCCCc2cccc(OCCCC(=O)O)c2CCC(=O)O)cc(-c2ccc(O)cc2)c1` [Example 5, 4-{2-(2-Carboxy-ethyl)-3-[6-(4′-hydroxy-5-methanesulfonyl-biphenyl-3-yloxy)-hexyl]-phenoxy}-butyric Acid], the IC50 was 1220 pM.
`CCS(=O)(=O)c1cc(OCCCCCCc2cccc(OCCCC(=O)O)c2CCC(=O)O)cc(-c2ccsc2)c1` [Example 52, 4-[2-(2-Carboxy-ethyl)-3-[6-(3-ethanesulfonyl-5-thiophen-3-yl-phenoxy)-hexyl]-phenoxy]-butyric Acid] gave an IC50 of 1040 pM.
`CCCS(=O)(=O)c1cc(OCCCCCCc2cccc(OCCCC(=O)O)c2CCC(=O)O)cc(-c2ccc(F)cc2)c1` [Example 55, 4-[2-(2-Carboxy-ethyl)-3-[6-(5-(propane-1-sulfonyl)-4′-fluoro-biphenyl-3-yloxy)-hexyl]-phenoxy]-butyric Acid] gave an IC50 of 63800 pM.
`CCc1ccc(-c2cc(OCCCCCCc3cccc(OCCCC(=O)O)c3CCC(=O)O)cc(S(C)(=O)=O)c2)cc1` [Example 13, 4-{2-(2-Carboxy-ethyl)-3-[6-(4′-ethyl-5-methanesulfonyl-biphenyl-3-yloxy)-hexyl]-phenoxy}-butyric Acid] gave an IC50 of 910 pM.
In the case of `CS(=O)(=O)c1cc(OCCCCCCc2cccc(OCCCC(=O)O)c2CCC(=O)O)cc(-c2ccc3c(c2)OCCO3)c1` [Example 41, 4-(2-(2-Carboxy-ethyl)-3-{6-[3-(2,3-dihydro-benzo[1,4]dioxin-6-yl)-5-methanesulfonyl-phenoxy]-hexyl}-phenoxy)-butyric Acid], the IC50 is reported as 470 pM.
In the case of `CCS(=O)(=O)c1cc(OCCCCCCc2cccc(OCCCC(=O)O)c2CCC(=O)O)cc(-c2ccc3c(c2)OCO3)c1` [Example 47, 4-[3-[6-(3-Benzo[1,3]dioxol-5-yl-5-ethanesulfonyl-phenoxy)-hexyl]-2-(2-carboxy-ethyl)-phenoxy]-butyric Acid], the IC50 is reported as 270 pM.
With `CS(=O)(=O)c1cc(Nc2ccccc2)cc(OCCCCCCc2cccc(OCCCC(=O)O)c2CCC(=O)O)c1` [Example 26, 4-{2-(2-Carboxy-ethyl)-3-[6-(3-methanesulfonyl-5-phenylamino-phenoxy)-hexyl]-phenoxy}-butyric Acid] the IC50 was 47100 pM.
`CS(=O)(=O)c1cc(OCCCCCCc2cccc(OCCCC(=O)O)c2CCC(=O)O)cc(-c2ccc(F)cc2)c1` [Example 8, 4-{2-(2-Carboxy-ethyl)-3-[6-(4′-fluoro-5-methanesulfonyl-biphenyl-3-yloxy)-hexyl]-phenoxy}-butyric Acid] showed an IC50 of 380 pM.
For `CS(=O)(=O)c1cc(OCCCCCCc2cccc(OCCCC(=O)O)c2CCC(=O)O)cc(-c2cscn2)c1` [Example 21, 4-{2-(2-Carboxy-ethyl)-3-[6-(3-methanesulfonyl-5-thiazol-4-yl-phenoxy)-hexyl]-phenoxy}-butyric Acid], the IC50 was 261000 pM.
For `CCS(=O)(=O)c1cc(OCCCCCCc2cccc(OCCCC(=O)O)c2CCC(=O)O)cc(-c2ccc(F)cc2)c1` [Example 51, 4-[2-(2-Carboxy-ethyl)-3-[6-(5-ethanesulfonyl-4′-fluoro-biphenyl-3-yloxy)-hexyl]-phenoxy]-butyric Acid], the IC50 was 2800 pM.

Test system: not given
Test: not given
Details: not given
In the case of `CCS(=O)(=O)c1cc(OCCCCCCc2cccc(OCCCC(=O)O)c2CCC(=O)O)cc(-c2ccc3c(c2)OCO3)c1` [Example 47, 4-[3-[6-(3-Benzo[1,3]dioxol-5-yl-5-ethanesulfonyl-phenoxy)-hexyl]-2-(2-carboxy-ethyl)-phenoxy]-butyric Acid], the melting point is reported as 134 to 135 °C.
